Data reported in EPA's ToxValDB 9.5 (doi:10.2903/j.efsa.2013.3166).
Values after ≈ are worked out from the molar mass of the structure shown.

Legend:
Perca sp. = conditions: acute; duration: 96 hours; mortality
Canidae = conditions: chronic; duration: 1 years; oral; Dog Other; food consumption
Pimephales promelas = conditions: acute; mortality
Apis mellifera = conditions: acute, duration: 48 hours, mortality
Colinus virginianus = conditions: for LD50: acute, oral, mortality
Lepomis macrochirus = conditions: acute; duration: 96 hours; mortality
Typhlodromus pyri = assay: LR50; higher = less toxic; conditions: not reported; mortality
[1] = acute, duration: 14 days, mortality

CC(C)(C)c1ccc(CCOc2ncnc3ccccc23)cc1 [Fenazaquin]
LC50 (Tagia sp.; [1]): 26.5 mg/kg | NOEC (Tagia sp.; chronic/long-term, duration: 8 weeks): 1.25 mg/kg | LD50 (Rattus norvegicus; acute, oral, M, mortality): 134 mg/kg-day | NOAEL (Rattus norvegicus; chronic, duration: 2 years, oral, histopathology: nonneoplastic): 0.46 mg/kg-day | NOEL (Rattus norvegicus; reproduction developmental): 25 mg/kg-day | NOAEL (Rattus norvegicus; reproduction developmental, food consumption): 10 mg/kg-day | LC50 (Perca sp.): 3.2 ng/mL (≈ 0.0104 µM) | NOAEL (Canidae): 5 mg/kg-day | LC50 (Pimephales promelas): 4.2 ng/mL (≈ 0.0137 µM) | LD50 (Apis mellifera; dermal): 1.21 µg/piece | LD50 (Apis mellifera; oral, unspecified): 4.29 µg/piece | LD50 (Colinus virginianus; diet): > 1170 mg/kg-day | LD50 (Colinus virginianus): 1750 mg/kg-day | NOEC (Colinus virginianus; reproduction developmental): 80.3 mg/kg-day | LC50 (Folsomia candida; [1]): > 1000 mg/kg | NOEC (Folsomia candida; chronic/long-term, duration: 28 days): 23 mg/kg | LC50 (Lepomis macrochirus): 34.1 ng/mL (≈ 0.111 µM) | LR50 (Typhlodromus pyri): < 2 g/ha
